Source: the supplement of paper PMC10307832

Columns and labels:
Test in all cases: relative viability (nuclei count vs DMSO), 5 days (fraction); higher = more cells survive
NCI-H3122 = tested on: NCI-H3122
Outline: (§1)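 Each reported value is a median over duplicate plates. It expresses relative viability: treated-well nuclei count divided by vehicle-well nuclei count. Lung cancer cell lines in 1536-well plates were dosed by pin tool a day after seeding, alone with one drug or with a fixed anchor-drug dose plus five library-drug doses (not always all listed) in √10 steps, and nuclei were counted after 5 days.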

NCI-H727 = tested on: NCI-H727
Outline: as §1

NCI-H1793 = tested on: NCI-H1793
Outline: as §1

RERF-LC-KJ = tested on: RERF-LC-KJ
Outline: as §1

LXF-289 = tested on: LXF-289
Outline: as §1

NCI-H2405 = tested on: NCI-H2405
Outline: as §1

HCC-827 = tested on: HCC-827
Outline: as §1

LCLC-97TM1 = tested on: LCLC-97TM1
Outline: as §1

NCI-H1437 = tested on: NCI-H1437
Outline: as §1

BEN = tested on: BEN
Outline: as §1

NCI-H322M = tested on: NCI-H322M
Outline: as §1

NCI-H1792 = tested on: NCI-H1792
Outline: as §1

NCI-H2087 = tested on: NCI-H2087
Outline: as §1

NCI-H1944 = tested on: NCI-H1944
Outline: as §1

NCI-H2228 = tested on: NCI-H2228
Outline: as §1

SK-LU-1 = tested on: SK-LU-1
Outline: as §1

NCI-H1395 = tested on: NCI-H1395
Outline: as §1

CAL-12T = tested on: CAL-12T
Outline: as §1

NCI-H1650 = tested on: NCI-H1650
Outline: as §1

NCI-H647 = tested on: NCI-H647
Outline: as §1

201T = tested on: 201T
Outline: as §1

## CCN(CC)CCCCNc1ncc2cc(-c3cc(OC)cc(OC)c3)c(NC(=O)NC(C)(C)C)nc2n1 + CS(=O)(=O)CCNCc1ccc(-c2ccc3ncnc(Nc4ccc(OCc5cccc(F)c5)c(Cl)c4)c3c2)o1 [Lapatinib] (partner 2 µM)
NCI-H3122; first compound 0.01 µM
  relative viability: 0.997
NCI-H3122; first compound 0.03162 µM
  relative viability: 1.04
NCI-H3122; first compound 0.1 µM
  relative viability: 1.16
NCI-H3122; first compound 0.3162 µM
  relative viability: 1.07
NCI-H3122; first compound 1 µM
  relative viability: 1
NCI-H727; first compound 0.01 µM
  relative viability: 0.705
NCI-H727; first compound 0.03162 µM
  relative viability: 0.743
NCI-H727; first compound 0.1 µM
  relative viability: 0.944
NCI-H727; first compound 0.3162 µM
  relative viability: 0.967
NCI-H727; first compound 1 µM
  relative viability: 1.08
NCI-H1793; first compound 0.01 µM
  relative viability: 0.623
NCI-H1793; first compound 0.1 µM
  relative viability: 1.03
NCI-H1793; first compound 0.3162 µM
  relative viability: 0.562
NCI-H1793; first compound 1 µM
  relative viability: 0.367
RERF-LC-KJ; first compound 0.01 µM
  relative viability: 0.854
RERF-LC-KJ; first compound 0.03162 µM
  relative viability: 0.893
RERF-LC-KJ; first compound 0.1 µM
  relative viability: 0.907
RERF-LC-KJ; first compound 0.3162 µM
  relative viability: 0.949
RERF-LC-KJ; first compound 1 µM
  relative viability: 0.879
LXF-289; first compound 0.01 µM
  relative viability: 0.893
LXF-289; first compound 0.03162 µM
  relative viability: 0.944
LXF-289; first compound 0.1 µM
  relative viability: 0.941
LXF-289; first compound 0.3162 µM
  relative viability: 0.865
LXF-289; first compound 1 µM
  relative viability: 0.599
NCI-H2405; first compound 0.01 µM
  relative viability: 0.926
NCI-H2405; first compound 0.03162 µM
  relative viability: 1.05
NCI-H2405; first compound 0.1 µM
  relative viability: 1.16
NCI-H2405; first compound 0.3162 µM
  relative viability: 1.28
NCI-H2405; first compound 1 µM
  relative viability: 1.04
HCC-827; first compound 0.01 µM
  relative viability: 0.214
HCC-827; first compound 0.03162 µM
  relative viability: 0.206
HCC-827; first compound 0.1 µM
  relative viability: 0.177
HCC-827; first compound 0.3162 µM
  relative viability: 0.177
HCC-827; first compound 1 µM
  relative viability: 0.172
LCLC-97TM1; first compound 0.03162 µM
  relative viability: 0.958
LCLC-97TM1; first compound 0.1 µM
  relative viability: 1.13
LCLC-97TM1; first compound 0.3162 µM
  relative viability: 0.923
LCLC-97TM1; first compound 1 µM
  relative viability: 1.12
NCI-H1437; first compound 0.01 µM
  relative viability: 0.809
NCI-H1437; first compound 0.03162 µM
  relative viability: 0.841
NCI-H1437; first compound 0.1 µM
  relative viability: 0.906
NCI-H1437; first compound 0.3162 µM
  relative viability: 0.909
NCI-H1437; first compound 1 µM
  relative viability: 0.653
BEN; first compound 0.01 µM
  relative viability: 0.76
BEN; first compound 0.03162 µM
  relative viability: 0.539
BEN; first compound 0.1 µM
  relative viability: 0.767
BEN; first compound 0.3162 µM
  relative viability: 0.835
BEN; first compound 1 µM
  relative viability: 0.651
NCI-H322M; first compound 0.01 µM
  relative viability: 0.549
NCI-H322M; first compound 0.03162 µM
  relative viability: 0.584
NCI-H322M; first compound 0.1 µM
  relative viability: 0.598
NCI-H322M; first compound 0.3162 µM
  relative viability: 0.619
NCI-H322M; first compound 1 µM
  relative viability: 0.528
NCI-H1792; first compound 0.01 µM
  relative viability: 0.97
NCI-H1792; first compound 0.03162 µM
  relative viability: 0.886
NCI-H1792; first compound 0.1 µM
  relative viability: 1.21
NCI-H1792; first compound 0.3162 µM
  relative viability: 1.64
NCI-H1792; first compound 1 µM
  relative viability: 0.433
NCI-H2087; first compound 0.01 µM
  relative viability: 1.15
NCI-H2087; first compound 0.03162 µM
  relative viability: 0.99
NCI-H2087; first compound 0.1 µM
  relative viability: 1.23
NCI-H2087; first compound 0.3162 µM
  relative viability: 1.06
NCI-H2087; first compound 1 µM
  relative viability: 1.07
NCI-H1944; first compound 0.01 µM
  relative viability: 0.903
NCI-H1944; first compound 0.03162 µM
  relative viability: 0.789
NCI-H1944; first compound 0.1 µM
  relative viability: 0.996
NCI-H1944; first compound 0.3162 µM
  relative viability: 0.836
NCI-H1944; first compound 1 µM
  relative viability: 0.676
NCI-H2228; first compound 0.01 µM
  relative viability: 1.06
NCI-H2228; first compound 0.03162 µM
  relative viability: 1.35
NCI-H2228; first compound 0.1 µM
  relative viability: 1.19
NCI-H2228; first compound 0.3162 µM
  relative viability: 1.22
NCI-H2228; first compound 1 µM
  relative viability: 0.74
SK-LU-1; first compound 0.01 µM
  relative viability: 0.985
SK-LU-1; first compound 0.03162 µM
  relative viability: 0.975
SK-LU-1; first compound 0.1 µM
  relative viability: 0.947
SK-LU-1; first compound 0.3162 µM
  relative viability: 1.2
SK-LU-1; first compound 1 µM
  relative viability: 0.638
NCI-H1395; first compound 0.03162 µM
  relative viability: 0.93
NCI-H1395; first compound 0.1 µM
  relative viability: 1.07
NCI-H1395; first compound 0.3162 µM
  relative viability: 0.725
NCI-H1395; first compound 1 µM
  relative viability: 0.551
CAL-12T; first compound 0.03162 µM
  relative viability: 0.56
CAL-12T; first compound 0.1 µM
  relative viability: 0.703
CAL-12T; first compound 0.3162 µM
  relative viability: 0.674
CAL-12T; first compound 1 µM
  relative viability: 0.62
NCI-H1650; first compound 0.01 µM
  relative viability: 0.714
NCI-H1650; first compound 0.03162 µM
  relative viability: 0.733
NCI-H1650; first compound 0.1 µM
  relative viability: 0.614
NCI-H1650; first compound 0.3162 µM
  relative viability: 0.35
NCI-H1650; first compound 1 µM
  relative viability: 0.242
NCI-H647; first compound 0.01 µM
  relative viability: 1.22
NCI-H647; first compound 0.03162 µM
  relative viability: 1.25
NCI-H647; first compound 0.1 µM
  relative viability: 1.28
NCI-H647; first compound 0.3162 µM
  relative viability: 1.48
NCI-H647; first compound 1 µM
  relative viability: 0.493
201T; first compound 0.01 µM
  relative viability: 1.03
201T; first compound 0.03162 µM
  relative viability: 1.04
201T; first compound 0.1 µM
  relative viability: 1.12
201T; first compound 0.3162 µM
  relative viability: 1.08
201T; first compound 1 µM
  relative viability: 0.884
